Data taken from publication PMC5575254, “An allosteric ligand-binding site in the extracellular cap of K2P channels” (Nature Communications, 2017).

Columns and labels:
TREK-2 = molecular target: T1, TREK-2 (Homo sapiens, UniProt P57789); assay: Whole-cell voltage clamp of CHO cells expressing TREK-2; assay type: cell-based; settings: mean ± s.e.m
T1 construct: expressed in transfected cells; host or cells: CHO cells, transient transfection
T1 sequence (P57789 1-538): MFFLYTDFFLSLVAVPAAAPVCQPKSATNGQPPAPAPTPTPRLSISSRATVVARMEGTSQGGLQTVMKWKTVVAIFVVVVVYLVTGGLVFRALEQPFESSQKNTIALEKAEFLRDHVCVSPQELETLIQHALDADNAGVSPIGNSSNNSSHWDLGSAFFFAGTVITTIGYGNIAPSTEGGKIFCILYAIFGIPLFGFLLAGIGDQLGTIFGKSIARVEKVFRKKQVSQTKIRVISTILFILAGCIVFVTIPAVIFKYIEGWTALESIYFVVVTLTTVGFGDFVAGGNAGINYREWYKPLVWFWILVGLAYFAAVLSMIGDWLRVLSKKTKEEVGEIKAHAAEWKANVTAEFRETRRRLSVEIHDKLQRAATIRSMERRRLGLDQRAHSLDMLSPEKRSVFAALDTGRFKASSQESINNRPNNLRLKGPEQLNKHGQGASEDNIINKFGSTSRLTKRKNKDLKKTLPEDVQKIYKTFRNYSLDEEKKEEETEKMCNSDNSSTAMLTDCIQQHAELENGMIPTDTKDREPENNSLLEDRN
Description: cDNA of the human TREK-1, TREK-2 and TRAAK channels were subcloned into the pEGFPN1 expression vector (Invitrogen), respectively. Mutations were introduced into TREK-1 or TRAAK by PCR using the QuickChange XL sitedirected mutagenesis kit (Agilent Technologies) and were subsequently confirmed by DNA sequencing.
Chinese hamster ovary (CHO) cells were provided by the Cell Bank of Chinese Academy of Sciences (Shanghai, China). CHO cells were maintained in DMEM/F12 (Gibco) supplemented with 10% fetal bovine serum (Gibco) and 100 μg ml^−1 penicillin-streptomycin (Cellgro) in a humidified incubator at 37 °C (5% CO2). For electrophysiology experiments, cells plated in 35 mm tissue culture dishes (Corning Incorporated) were transiently transfected with the plasmids using PolyJet™ reagent (SignaGen) according to the manufacturer’s instructions. Primers used in this study are listed in Supplementary Table 4.
All electrophysiological recordings were obtained using patch-clamp recordings in two different configurations: (1) whole cell for macroscopic current dose–response curves; and (2) outside-out and inside-out for macroscopic currents recordings.
All patch-clamp recordings were conducted 36–96 h after transfection with an Axopatch-200B amplifier (Molecular Devices) at room temperature (23–25 °C). The microelectrodes fashioned from 1.5 mm thin-walled borosilicate glass with filament were pulled from Flaming/Brown type micropipette puller (P-97; SUTTER INSTRUMENT) with the resistances of 3–7 MΩ (whole cell) or 7–15 MΩ (outside-out) when filled with a solution containing (in mM): 140 KCl, 2 MgCl2, 10 EGTA, 1 CaCl2, 10 HEPES (pH 7.3, adjusted with KOH). External solution contained (in mM): 150 NaCl, 5 KCl, 0.5 CaCl2, 1.2 MgCl2, 10 HEPES (pH 7.3, adjusted with NaOH). The current signals were filtered at 1 kHz and digitized at a 10 kHz sampling frequency by using DigiData 1440 A.
Data of whole-cell voltage clamp experiments were fitted using doseResp function. The half inhibition concentrations were derived from fits of the dose–response curves to the function:1 I/I0=A1+A2-A1/1+10^logx0-xP, where I 0 and I are current amplitudes before and after application of inhibitors; A 1 and A 2 are constants between 0 and 1; x is the concentration of inhibitor; x o is the concentration when 50% inhibition was reached (IC50), P is the Hill constant.

mice = assay: Open field test; assay type: in vivo, Male C57BL/6 mice; settings: chronic i.p. administration 10 days
Protocol: Male C57BL/6 mice, aged 8 weeks (weighing 18–20 g) were used for acute and chronic drug administration and behavioral tests. The mice were housed four per cage under a 12-h light–dark cycle. Mice were raised under stable conditions with food and water ad libitum. All animal studies and experimental procedures were approved by the Animal Care Committees of the Shanghai Institute of Materia Medica, Chinese Academy of Sciences, and experiments were carried out in accordance with EU Directive 2010/63/EU on the protection of animals used for scientific purposes. […] The mice were removed to a sound-attenuating testing room 3–4 h before testing. The behavioral tests were carried out 30 min and 24 h after acute and chronic drugs administration, respectively.
The apparatus was made of opaque Plexiglas (50 cm × 50 cm) and placed in a room with sound proof. A camera was positioned above the apparatus to monitor the animal behaviors. The mice were randomly placed into the center of the sheet following 30 min drugs administration and their behaviors in the open field arena were recorded for 10 min using the camera. […] Locomotor activity and exploratory behavior were measured in the open field test and each animal was placed individually at the center for a 10 min session. The total distance moved and the number of rearing was measured in this experiment. […]

[1] = Solubility of TKDC (remark); assay type: physicochemical
TREK-1 internalization = assay: Confocal microscopic analysis of channel internalization (co-localization with Rab5a); assay type: cell-based, CHO-K1 cells; settings: 10 μM, 20 min, vs DMSO control
Protocol: In eight-well chamber (Thermo), CHO-K1 cells were co-transfected with PEGFP-N1-TREK1 and OFP-Rab5a. After 24 h, cells were treated with 10 μM TKDC for 20 min at room temperature and DMSO as control. At the end of incubation, cells were washed with PBS, fixed with 4% paraformaldehyde and washed with PBS. Images were taken at × 100 with scan zoom 1.74 using Leica SP8 and 3D reconstruction was done using Imaris software (Bitplane) and co-localization analysis was quantified using Imaris software. An automatic threshold of red and green channels was selected. The data represent images taken from 18 different areas (n = 18).

IC50 (TREK-2): 5.2 ± 1.9 µM
solubility [1]: not very soluble
Compound: CS(=O)(=O)N(CC(=O)N1CCc2ccccc2C1)c1ccc(Cl)cc1 [TKDC, N-(4-cholorphenyl)-N-(2-(3,4-dihydrosioquinolin-2(1H)-yl)-2-oxoethyl)methanesulfonamide]
movement into the central area in the open field test (mice): more likely to move into the central area
total distance traveled in the open field test (mice; among groups): no obvious difference
TREK-1 internalization (co-localization with Rab5a) (TREK-1 internalization): did not significantly increase TREK-1 internalization
